Several values for one entry are separate records, joined by “and”; a condition that tells them apart may be missing. Equal values may be shown once. Entries after “also recorded” stand apart in the source; their conditions may differ. Read-outs that look alike come from different tables or passages of the source.
What was measured:
[1] = system: human ALS stem cell-derived motor neurons; assay: Rescue of CPA toxicity, 6-point dose-response assay (FIG. 2B); format: cell-based
[2] = In vivo pharmacokinetics, IP injection or oral gavage, 10 mg/kg; set-up: species or system mouse; settings: for Kp at 3 h: brain/plasma, read-out: Brain/plasma ratio at 3 h; for Cmax: plasma
Description: Based on its strong performance in the microsome assay, 12k was selected for further pharmacokinetic analysis in vivo. Compounds 1 and 12k were administered to 8 week-old wild-type […] mice at 10 mg/kg through intraperitoneal (IP) injection or oral gavage (OG). Brains and plasma were collected across 4 time points over 24 h for LC-MS/MS analysis.
Compounds 1 and 12k were dissolved in DMSO to 40 mg/mL. For in vivo administration, the DMSO stock was further diluted to 2 mg/mL in a vehicle containing 40% PEG-400 (Sigma) and 55% of a (2-hydroxypropyl)-beta-cyclodextrin solution (20% in nanopure water, Sigma). Compounds were delivered at 10 mg/kg by intraperitoneal injection or oral gavage to 8 week-old male wild-type C57Bl6J mice (Jackson). After 15 min, 3 h, 8 h or 24h, animals were anesthetized with a mixture of ketamine (100 mg/kg) and xylazine (10 mg/kg), then decapitated to collect trunk blood and dissect fresh brain tissue. Blood samples were treated with EDTA solution (50 mM final concentration) to prevent coagulation and centrifuged for 10 min at 845 rcf at 4° to separate plasma. Fresh brains were lysed in 5 volumes of ddH2O.
Plasma samples were transferred to Eppendorf tubes (50 μL per sample) and diluted with acetonitrile (200 μL). The samples were sonicated for 1 minute followed by centrifugation at 16,000 rpm for 10 minutes. The supernatant was transferred to another Eppendorf tube and the solvent evaporated overnight. The samples were reconstituted in a mixture of 40 μL acetonitrile and 10 μL water transferred to a sample vial with insert, and analyzed by LC-MS.
Homogenized brain samples (250 μL) were transferred to Eppendorf tubes and diluted with acetonitrile (750 μL). The samples were sonicated for 1 minute followed by centrifugation at 16,000 rpm for 10 minutes. The supernatant (900 μL) was transferred to another Eppendorf tube and the solvent evaporated overnight. The samples were reconstituted in a mixture of 80 μL acetonitrile and 20 μL water, transferred to a sample vial with insert, and analyzed by LC-MS.
LC-MS analysis was performed on a platform comprising a Thermo Scientific Dionex Ultimate 3000 and a Bruker amaZon SL equipped with an electrospray ionization source controlled by Bruker Hystar 3.2. The compound concentration in each plasma sample was determined using a calibration curve. Chromatographic separation was performed by injecting 10 μL of the sample onto an Agilent Eclipse Plus C18 column (2.1×50 mm, 3.5 μm) maintained at 20° C. The flow rate was maintained at 400 μL/min. The initial flow conditions were 60% solvent A (water containing 0.1% acetic acid) and 40% solvent B (methanol containing 0.1% acetic acid). Solvent B was raised to 60% over 0.25 minutes and to 70% by 6.75 minutes.

[3] = system: mouse ES-derived motor neurons; assay: Western blot of JNK pathway activation in CPA-treated motor neurons; format: cell-based; settings: 4 h
Description: Mouse ES-derived motor neurons were treated with CPA, CPA+ compound 1, or vehicle control (DMSO) for four hours. Cells were then lysed to extract proteins.
Samples were harvested after 4 h of treatment. N=samples from 3 separate motor neuron differentiations treated and lysed separately. Cells from each differentiation were split into three samples, one for each treatment condition. All samples were run concurrently on the same blot. All band intensities were normalized to GAPDH to control for loading, then DMSO and CPA+Compound 1 values were normalized to CPA values for each n. One-way ANOVAs were used to evaluate the overall effects of treatment on JNK phosphorylation (P=0.0009; F=28.33; R2=0.9042) and c-Jun phosphorylation (P<0.0001; F=101.9; R2=0.9714).
Whole mouse embryoid bodies at day 6 of differentiation were treated with CPA (10 μM) and test compounds for 4 h, then lysed and sonicated in ice-cold buffer containing HEPES (50 mM), NaCl (100 mM), Triton-X (1%), SDS (0.1%), DTT (1 mM), EDTA (1 mM), plus protease and phosphatase inhibitor cocktail tablets (Roche). Total protein content was analyzed using a BCA kit according to the manufacturer's instructions (Pierce). […] Samples were run for 4 h at 100V at 4°, then transferred to nitrocellulose membranes using an iBlot dry transfer system (Thermo Fisher). Membranes were blocked with tris-buffered saline (TBS) containing 5% BSA (Cell Signaling Technologies), then incubated with primary antibodies in a buffer containing 5% BSA and 0.1% Tween in TBS overnight at 4°. Primary antibodies against phospho-c-Jun (serine 63; Cell Signaling Technologies #9261) were added at 1:500; primary antibodies against phospho-JNK (thr183/tyr185; Cell Signaling Technologies #4688) were added at 1:1000; primary antibodies against GAPDH (Santa Cruz Biotechnologies) were added at 1:1000 as a loading control. Following washes in TBS containing 0.1% Tween, membranes were incubated in goat anti-rabbit HRP-conjugated secondary antibody solutions (1:10,000; Santa Cruz Biotechnologies) for 1 hr. Membranes were then washed again in TBS containing 0.1% Tween, then incubated in Femto ECL (Pierce) for 5 min. Chemiluminescence was visualized using a LiCor Odyssey. Phospho-c-Jun and phopsho-JNK band intensities were normalized to GAPDH.

[4] = system: panel of 60 human kinases; assay: Radiolabeled ATP kinase assay, panel of 60 kinases (Table S5); format: biochemical; settings: 0.5 μM
Outline: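 Compounds at two concentrations, 0.1 μM and 0.5 μM, were screened for inhibition of 60 kinases in cell-free assays read out by radiolabeled ATP.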

[5] = system: targets of cyclin-dependent kinases and mitogen activated kinases; assay: Target engagement in CNS, per os 7 days (phosphoprotein blot of brain); format: in vivo, mouse; settings: 5 or 10 mg/kg
Description: To explore the target engagement in CNS for compound 12k, compounds 1 and 12k were administered continuously per os to wild-type mice (n=3 per treatment). […] Fresh brain samples were harvested after 7 days of treatment. Reduced brain samples were separated by SDS-PAGE and probed with an antibody that recognizes phosphoproteins that have been phosphorylated at motifs corresponding to the targets of cyclin-dependent kinases and mitogen activated kinases.

With CN1CCN(Cc2ccc(-c3cnc4[nH]cc(-c5ccc6[nH]ccc6c5)c4c3)cc2)CC1 [Compound 1, 3-(1H-Indol-5-yl)-5-(4-((4-methylpiperazin-1-yl)methyl)phenyl)-1H-pyrrolo[2,3-b]pyridine, reference compound] the cellular potency [1] was > 100 nM, the “concentrations showing protective effects” value ([1]; 33 μM CPA) was ≥ 100 nM and the “concentration that completely reversed CPA-induced neurodegeneration” value ([1]; 33 μM CPA, 0.01 μM-3 μM) was 1 µM. The “Oral bioavailability (% F) based on plasma measurements in IP vs. OG-treated animals” value [2] was 46%, the “Brain AUC” value ([2]; IP) was 1568 ng·h/mL and the “Brain mean Cmax” value ([2]; IP) was 208.83 µg/kg. The “Plasma AUC” value ([2]; IP) was 7328 ng·h/mL, the “Brain AUC” value ([2]; OG) was 567.2 ng·h/mL and the “Brain mean Cmax” value ([2]; OG) was 83.35 µg/kg. For the same compound, the “Plasma AUC” value ([2]; OG) was 3401 ng·h/mL, the Kp at 3 h ([2]; male, mouse, ip) was 0.25 and the Kp at 3 h ([2]; male, mouse, oral, OG) was 0.18. The Cmax ([2]; male, mouse, ip) was 972 ng/mL, the Cmax ([2]; male, mouse, po, OG) was 476 ng/mL and the “JNK phosphorylation in CPA-treated motor neurons” value [3] was “strongly attenuated; also recorded: significantly decreased JNK phosphorylation”. The “MKK4 phosphorylation in CPA-treated MNs” value [3] was “strongly attenuated”, the “c-Jun phosphorylation in CPA-treated motor neurons” value [3] was “strongly suppressed; also recorded: below the threshold of detection” and the “caspase 3 cleavage in CPA-treated MNs” value [3] was “strongly suppressed”. For the same compound, the “number of the 60 kinases strongly inhibited (<20% residual activity)” value [4] was 27.

For CN1CCN(Cc2ccc(-c3cnc4[nH]cc(-c5cccc(Cl)c5)c4c3)cc2)CC1 [Compound 7ad, 3-(3-Chlorophenyl)-5-(4-((4-methylpiperazin-1-yl)methyl)phenyl)-1H-pyrrolo[2,3-b]pyridine], the “number of the 60 kinases strongly inhibited (<20% residual activity)” value [4] was 12.

For OCCN1CCN(Cc2ccc(-c3cnc4[nH]cc(-c5cccc(Cl)c5)c4c3)cc2)CC1 [Compound 12k, 2-(4-(4-(3-(3-Chlorophenyl)-1H-pyrrolo[2,3-b]pyridin-5-yl)benzyl)piperazin-1-yl)ethan-1-ol], the “Oral bioavailability (% F) based on plasma measurements in IP vs. OG-treated animals” value [2] was 73%, the “Brain AUC” value ([2]; IP) was 11570 ng·h/mL and the “Brain mean Cmax” value ([2]; IP) was 1162.23 µg/kg. For the same compound, the “Plasma AUC” value ([2]; IP) was 3899 ng·h/mL, the “brain Cmax” value ([2]; IP-injected) was 1162 ng/g and 2.60 μM and the “Brain AUC” value ([2]; OG) was 8429 ng·h/mL. For the same compound, the “Brain mean Cmax” value ([2]; OG) was 658.88 µg/kg, the “Plasma AUC” value ([2]; OG) was 2785 ng·h/mL and the bioavailability ([2]; male, mouse, brain, po, read-out: Oral bioavailability (% F) by comparing brain measurements) was 73%. The Kp at 3 h ([2]; male, mouse, ip) was 3.91, the Kp at 3 h ([2]; male, mouse, oral, OG) was 2.58 and the Cmax ([2]; male, mouse, ip) was 454 ng/mL. The Cmax ([2]; male, mouse, po, OG) was 184 ng/mL and the “intensity of a high molecular weight phosphoprotein band in brain vs vehicle or compound 1” value [5] was “consistently decreased the intensity of a high molecular weight band”.

Reference: patent publication US12227500B2, “Substituted pyrrolo[2,3-b]pyridines for suppressing toxic endoplasmic reticulum stress” (THE TRUSTEES OF COLUMBIA UNIVERSITY IN THE CITY OF NEW YORK, priority 2018, dated 2025)
